Results published in patent US6737383B1, “Herbicidal oxadiazolidines” (priority 1999, dated 2004).

Experiments:
wheat = experiment: Test B pre/postemergence wheat; type: in vivo, Triticum aestivum; conditions: for Plant response rating, Wheat: Rate 250 g/ha
How it was run: (§1)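 Response is a visual 0-to-10 score relative to untreated plants, where 0 means no effect and 10 means complete control, taken twelve to sixteen days after application. Treatments went onto soil at planting and onto foliage of 1- to 4-leaf plants, using a surfactant-containing non-phytotoxic solvent.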

wild oat = experiment: Test B pre/postemergence wild oat; type: in vivo, Avena fatua; conditions: for Plant response rating, Wild oats: Rate 250 g/ha
How it was run: as §1

rape = experiment: Test B pre/postemergence rape; type: in vivo, Brassica napus
How it was run: as §1

bedstraw = experiment: Test B pre/postemergence bedstraw; type: in vivo, Galium aparine
How it was run: as §1

bamyardgrass = experiment: Test B flood test barnyardgrass; type: in vivo, Echinochloa crus-galli
How it was run: (§2)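 Flood test on plants grown to the 2-leaf stage; treated plants kept in greenhouse twelve to sixteen days, then visually rated against controls on a 0 (no effect) to 10 (complete control) scale.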

sugar beet = experiment: Test B pre/postemergence sugar beet; type: in vivo, Beta vulgaris; conditions: for Plant response rating, Sugarbeets: Rate 250 g/ha
How it was run: as §1

cocklebur = experiment: Test B pre/postemergence cocklebur; type: in vivo, Xanthium strumarium
How it was run: as §1

corn = experiment: Test B pre/postemergence corn; type: in vivo, Zea mays
How it was run: as §1

crabgrass = experiment: Test B pre/postemergence crabgrass; type: in vivo, Digitaria sanguinalis
How it was run: as §1

pigweed = experiment: Test B pre/postemergence pigweed; type: in vivo, Amaranthus retroflexus
How it was run: as §1

purple nutsedge = experiment: Test B pre/postemergence purple nutsedge; type: in vivo, Cyperus rotundus
How it was run: as §1

smallflower flatsedge = experiment: Test B flood test smallflower flatsedge; type: in vivo, Cyperus difformis
How it was run: as §2

velvetleaf = experiment: Test B pre/postemergence velvetleaf; type: in vivo, Abutilon theophrasti; conditions: for Plant response rating, Velvetleaf: Rate 250 g/ha
How it was run: as §1

surinam grass = experiment: Test B pre/postemergence surinam grass; type: in vivo, Brachiaria decumbens
How it was run: as §1

soybean = experiment: Test B pre/postemergence soybean; type: in vivo, Glycine max
How it was run: as §1

blackgrass = experiment: Test B pre/postemergence blackgrass; type: in vivo, Alopecurus myosuroides
How it was run: as §1

[1] = Postemergence, Rate 62 g/ha, scale 0 to 10, 0 is no effect, 10 is complete control
[2] = Postemergence, Rate 125 g/ha, scale of 0 to 10 where 0 is no effect and 10 is complete control
[3] = Preemergence, Rate 62 g/ha, scale 0 to 10 (0 no effect, 10 complete control)
[4] = Preemergence, Rate 125 g/ha, 0 is no effect, 10 is complete control
[5] = Preemergence, scale of 0 to 10 where 0 is no effect and 10 is complete control
[6] = Preemergence, Rate 500 g/ha, scale 0 (no effect) to 10 (complete control)
[7] = Postemergence, scale 0 to 10, 0 is no effect, 10 is complete control
[8] = Rate 500 g/ha, Postemergence, scale 0 to 10, 0 no effect, 10 complete control
[9] = Postemergence, Rate 250 g/ha, scale 0 to 10, 0 no effect, 10 complete control
[10] = Preemergence, Rate 125 g/ha, scale 0 to 10 (0 no effect, 10 complete control)
[11] = Preemergence, Rate 250 g/ha, scale of 0 to 10 where 0 is no effect and 10 is complete control
[12] = Rate 125 g/ha, Postemergence, scale 0 to 10, 0 no effect, 10 complete control
[13] = Rate 500 g/ha, listed under Postemergence (flood test species), scale 0 to 10, 0 no effect, 10 complete control
[14] = Rate 250 g/ha, Postemergence, scale 0 to 10, 0 is no effect, 10 is complete control

Cc1nn(C)c(Cl)c1-n1c(=O)on(C(=O)N(c2ccc(F)cc2)C(C)C)c1=O [Compound 95]
2: Plant response rating, Wild oats (wild oat; [5]) | Bedstraw plant response rating (bedstraw; [8]) | Sugarbeets plant response rating (sugar beet; [1]) | Sugarbeets plant response rating (sugar beet; [2]) | Plant response rating, Sugarbeets (sugar beet; [5]) | Cocklebur plant response rating (cocklebur; [8]) | Crabgrass plant response rating (crabgrass; [3]) | Redroot pigweed plant response rating (pigweed; [1]) | Plant response rating, Blackgrass (blackgrass; [10])
9: Plant response rating, Redroot pigweed (pigweed; [11]) | Redroot pigweed plant response rating (pigweed; [6])
4: Barnyardgrass plant response rating (bamyardgrass; [13]) | Plant response rating, Sugarbeets (sugar beet; [7]) | Sugarbeets plant response rating (sugar beet; [8]) | Blackgrass plant response rating (blackgrass; [9]) | Plant response rating, Blackgrass (blackgrass; [11])
8: Plant response rating, Crabgrass (crabgrass; [11]) | Crabgrass plant response rating (crabgrass; [6]) | Crabgrass plant response rating (crabgrass; [8])
0: Wheat plant response rating (wheat; [1]) | Wheat plant response rating (wheat; [2]) | Wheat plant response rating (wheat; [3]) | Wheat plant response rating (0 to 10 scale) (wheat; [4]) | Plant response rating, Wheat (wheat; [5]) | Wheat plant response rating (wheat; [6]) | Plant response rating, Wheat (wheat; [7]) | Wheat plant response rating (wheat; [8]) | Wild oats plant response rating (wild oat; [1]) | Wild oats plant response rating (wild oat; [2]) | Wild oats plant response rating (wild oat; [3]) | Wild oats plant response rating (0 to 10 scale) (wild oat; [4]) | Plant response rating, Wild oats (wild oat; [7]) | Rape plant response rating (rape; [1]) | Rape plant response rating (rape; [2]) | Rape plant response rating (rape; [9]) | Rape plant response rating (rape; [3]) | Plant response rating, Rape (rape; [10]) | Rape plant response rating (rape; [8]) | Bedstraw plant response rating (bedstraw; [1]) | Bedstraw plant response rating (bedstraw; [9]) | Bedstraw plant response rating (bedstraw; [3]) | Plant response rating, Bedstraw (bedstraw; [10]) | Plant response rating, Bedstraw (bedstraw; [11]) | Bedstraw plant response rating (bedstraw; [6]) | Bedstraw plant response rating (bedstraw; [12]) | Barnyardgrass plant response rating (bamyardgrass; [1]) | Barnyardgrass plant response rating (bamyardgrass; Rate 125 g/ha, Postemergence section (flood test species), scale 0 to 10, 0 no effect, 10 complete control) | Barnyardgrass plant response rating (bamyardgrass; flood test, listed under Postemergence, Rate 250 g/ha, scale 0 to 10, 0 no effect, 10 complete control) | Sugarbeets plant response rating (sugar beet; [3]) | Cocklebur plant response rating (cocklebur; [1]) | Cocklebur plant response rating (cocklebur; [2]) | Cocklebur plant response rating (cocklebur; [3]) | Plant response rating, Cocklebur (cocklebur; [10]) | Plant response rating, Cocklebur (cocklebur; [11]) | Cocklebur plant response rating (cocklebur; [6]) | Corn plant response rating (corn; [1]) | Corn plant response rating (corn; [2]) | Corn plant response rating (corn; [9]) | Corn plant response rating (corn; [3]) | Plant response rating, Corn (corn; [10]) | Plant response rating, Corn (corn; [11]) | Corn plant response rating (corn; [6]) | Corn plant response rating (corn; [8]) | Crabgrass plant response rating (crabgrass; [1]) | Crabgrass plant response rating (crabgrass; [2]) | Nutsedge plant response rating (purple nutsedge; [1]) | Nutsedge plant response rating (purple nutsedge; [2]) | Nutsedge plant response rating (purple nutsedge; [9]) | Nutsedge plant response rating (purple nutsedge; [3]) | Plant response rating, Nutsedge (purple nutsedge; [10]) | Plant response rating, Nutsedge (purple nutsedge; [11]) | Nutsedge plant response rating (purple nutsedge; [6]) | Nutsedge plant response rating (purple nutsedge; [8]) | S. Flatsedge plant response rating (smallflower flatsedge; Postemergence (flood test species), Rate 125 g/ha, scale of 0 to 10 where 0 is no effect and 10 is complete control) | S. Flatsedge plant response rating (smallflower flatsedge; [1]) | Plant response rating, S. Flatsedge (smallflower flatsedge; Rate 250 g/ha, Postemergence (flood test), scale 0 to 10, 0 is no effect, 10 is complete control) | Velvetleaf plant response rating (velvetleaf; [1]) | Velvetleaf plant response rating (velvetleaf; [2]) | Velvetleaf plant response rating (velvetleaf; [3]) | Velvetleaf plant response rating (0 to 10 scale) (velvetleaf; [4]) | Plant response rating, Velvetleaf (velvetleaf; [5]) | Velvetleaf plant response rating (velvetleaf; [6]) | Plant response rating, Velvetleaf (velvetleaf; [7]) | Velvetleaf plant response rating (velvetleaf; [8]) | B. signalgrass plant response rating (surinam grass; [1]) | B. signalgrass plant response rating (surinam grass; [3]) | Plant response rating, B. signalgrass (surinam grass; [10]) | B. signalgrass plant response rating (surinam grass; [12]) | Soybean plant response rating (soybean; [3]) | Plant response rating, Soybean (soybean; [10]) | Plant response rating, Soybean (soybean; [11]) | Soybean plant response rating (soybean; [6]) | Blackgrass plant response rating (blackgrass; [1]) | Blackgrass plant response rating (blackgrass; [2]) | Blackgrass plant response rating (blackgrass; [3])
3: Wild oats plant response rating (wild oat; [8]) | Plant response rating, Rape (rape; [11]) | Rape plant response rating (rape; [6]) | Sugarbeets plant response rating (sugar beet; [6]) | Redroot pigweed plant response rating (pigweed; [2]) | Plant response rating, Redroot pigweed (pigweed; [14]) | B. signalgrass plant response rating (surinam grass; [9]) | Plant response rating, B. signalgrass (surinam grass; [11])
7: B. signalgrass plant response rating (surinam grass; [6])
5: Wild oats plant response rating (wild oat; [6]) | Redroot pigweed plant response rating (pigweed; [3]) | Redroot pigweed plant response rating (pigweed; [8]) | S. Flatsedge plant response rating (smallflower flatsedge; [13]) | B. signalgrass plant response rating (surinam grass; Rate 500 g/ha, Postemergence, scale of 0 to 10 where 0 is no effect and 10 is complete control) | Blackgrass plant response rating (blackgrass; [8])
1: Sugarbeets plant response rating (0 to 10 scale) (sugar beet; [4]) | Cocklebur plant response rating (cocklebur; [9]) | Soybean plant response rating (soybean; [1]) | Soybean plant response rating (soybean; [2]) | Plant response rating, Soybean (soybean; [14]) | Soybean plant response rating (soybean; [8])
6: Crabgrass plant response rating (crabgrass; [9]) | Plant response rating, Crabgrass (crabgrass; [10]) | Plant response rating, Redroot pigweed (pigweed; [10]) | Blackgrass plant response rating (blackgrass; [6])
